Reference: paper PMC11931565, “Exploring medium and long arm extensions of 1,2,4-triazole derivatives as Candida albicans 14α-demethylase (CYP51) inhibitors” (RSC Medicinal Chemistry, 2025)
In brackets after ≈: the same amount, converted by molar mass.

Assays:
[1] = molecular target: T1, C. albicans CYP51 (CaCYP51) (Candida albicans, UniProt P10613); experiment: CaCYP51 reconstitution assay (IC50); format: biochemical; conditions: 1 μM CaCYP51, 60 μM lanosterol, 15 min at 37 °C
T1 construct: made in house; host or cells: E. coli
Procedure: Derivatives with a MIC <1 μg mL^−1 were chosen for IC50 testing.
C. albicans CYP51 was overexpressed in E. coli and purified and CaCYP51 reconstitutions assays performed.[10,37] The final reaction volume of 500 μL, contained; 1 μM C. albicans CYP51, 2 μM Homo sapiens cytochrome P450 reductase (CPR) (UniProtKB accession number P16435), 60 μM lanosterol, 50 μM dilaurylphosphatidylcholine, 4% w/v 2-hydroypropyl-cyclodextrin, 0.4 mg mL^−1 isocitrate dehydrogenase, 25 mM trisodium isocitrate, 50 mM NaCl, 5 mM MgCl2, and 40 mM MOPS (morpholinepropanesulfonic acid, pH 7.2). Antifungal compounds were added in 2.5 μL DMSO. The reaction was started by the addition of 4 mM NADPH-tetrasodium salt. Samples were shaken for 15 min at 37 °C and sterol metabolites extracted with ethyl acetate and derivatised with BSTFA.

[2] = tested on: C. albicans laboratory strain SC5314; experiment: C. albicans susceptibility testing (CLSI broth microdilution MIC), strain SC5314; format: cell-based, Candida albicans; conditions: RPMI 1640, 37 °C, read at 48 h; for MIC: Candida albicans, SC5314, 48 h
Text: (§1) Each novel compound was screened against C. albicans wild-type clinical isolate CA14 and C. albicans laboratory strain SC5314 using the standardised CLSI M27-S4 broth dilution method.[28] […] This might be explained by the clog P data as the more lipophilic compounds should more readily penetrate the fungal membrane resulting in improved uptake or may relate to optimal fill of the small hydrophobic pocket leading to improved binding.
(§2) Antifungal MIC values were obtained according to the CLSI microdilution method for yeasts.[28]C. albicans strains CA14 and SC5314 were tested in triplicate. Cultures were diluted to 2.5 × 10^3 cells per mL in RPMI 1640 (Sigma), buffered with 0.165 M MOPS, pH 7.0. Antifungal compounds were dissolved in DMSO and added at a final concentration of 1% v/v DMSO. Plates were incubated at 37 °C and read at 48 h.

[3] = tested on: C. albicans wild-type clinical isolate CA14; experiment: C. albicans susceptibility testing (CLSI broth microdilution MIC), strain CA14; format: cell-based, Candida albicans; conditions: RPMI 1640, 37 °C, read at 48 h; for MIC: Candida albicans
Text: as §1, §2

native CaCYP51 = molecular target: T2, native CaCYP51 (Candida albicans, UniProt P10613); experiment: CaCYP51 type II ligand binding affinity (Kd) from difference spectra saturation curves; conditions: 2.5 μM native CaCYP51; mean ± SD of three titrations; read-out: K d
T2 construct: made in house; host or cells: E. coli
Procedure: Azole titration was performed in triplicate.
The ligand–CaCYP51 complex was determined by non-linear regression (Levenberg–Marquardt algorithm) using a rearrangement of the Morrison equation for tight ligand binding,[38] while weak ligand binding was calculated by the Michaelis–Menten equation. Curve fitting for novel azole saturation curves was performed using the computer program ProFit 6.1.12 (QuantumSoft, Zurich, Switzerland) for Mac OSX. Kd values were determined for each of the three replicate titrations per azole compound and then mean Kd values and standard deviations calculated.

T1 sequence (P10613 whole entry): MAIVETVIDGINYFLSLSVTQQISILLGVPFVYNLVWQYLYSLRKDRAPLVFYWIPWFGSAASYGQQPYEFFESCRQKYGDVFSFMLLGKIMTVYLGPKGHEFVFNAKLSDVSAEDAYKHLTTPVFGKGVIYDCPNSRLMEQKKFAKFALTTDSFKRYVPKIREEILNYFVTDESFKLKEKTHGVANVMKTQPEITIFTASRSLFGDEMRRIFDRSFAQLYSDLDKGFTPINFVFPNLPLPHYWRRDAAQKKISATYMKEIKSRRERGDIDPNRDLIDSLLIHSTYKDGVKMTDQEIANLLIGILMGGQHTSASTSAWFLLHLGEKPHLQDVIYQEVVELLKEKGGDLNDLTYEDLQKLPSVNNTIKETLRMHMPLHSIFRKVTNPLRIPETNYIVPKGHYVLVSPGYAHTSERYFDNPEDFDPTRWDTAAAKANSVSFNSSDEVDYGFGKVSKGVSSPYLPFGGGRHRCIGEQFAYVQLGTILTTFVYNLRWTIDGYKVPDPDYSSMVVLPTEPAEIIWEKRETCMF
T2 sequence (P10613 whole entry): as above

| Compound | IC50 [1] | MIC [2] | MIC [3] | Kd (native CaCYP51) | MIC SC5314 [2] | MIC CA14 [3] |
| --- | --- | --- | --- | --- | --- | --- |
| O=C(NCC(O)(Cn1cncn1)c1ccc(Cl)cc1)c1ccc(NC(=S)Nc2ccc(Cl)cc2)cc1 (centres unmarked) [11a, N-(2-(4-Chlorophenyl)-2-hydroxy-3-(1H-1,2,4-triazol-1-yl)propyl)-4-(3-(4-chlorophenyl)thioureido)benzamide] | – | 4 mg/L (≈ 7.39 µM) | 4 mg/L (≈ 7.39 µM) | – | – | – |
| O=C(NCC(O)(Cn1cncn1)c1ccc(Cl)cc1)c1ccc(NS(=O)(=O)c2ccc(Cl)cc2)cc1 (centres unmarked) [14a, N-(2-(4-Chlorophenyl)-2-hydroxy-3-(1H-1,2,4-triazol-1-yl)propyl)-4-((4-chlorophenyl)sulfonamido)benzamide] | – | 1 mg/L (≈ 1.83 µM) | 1 mg/L (≈ 1.83 µM) | – | – | – |
| O=C(Nc1ccc(Cl)cc1)Nc1ccc(C(=O)NCC(O)(Cn2cncn2)c2ccc(Cl)cc2)cc1 (centres unmarked) [12a, N-(2-(4-Chlorophenyl)-2-hydroxy-3-(1H-1,2,4-triazol-1-yl)propyl)-4-(3-(4-chlorophenyl)ureido)benzamide] | – | 2 mg/L (≈ 3.81 µM) | 1 mg/L (≈ 1.9 µM) | – | – | – |
| O=C(NCC(O)(Cn1cncn1)c1ccc(Cl)cc1)c1csc(Cl)n1 (centres unmarked) [7a, 2-Chloro-N-(2-(4-chlorophenyl)-2-hydroxy-3-(1H-1,2,4-triazol-1-yl)propyl)thiazole-4-carboxamide] | 0.77 µM | 0.25 mg/L (≈ 0.628 µM) | 0.25 mg/L (≈ 0.628 µM) | 0.635 ± 0.181 µM | – | – |
| CC(=O)c1cccc(C(=O)NCC(O)(Cn2cncn2)c2ccc(Cl)cc2)c1 (centres unmarked) [6a, 3-Acetyl-N-(2-(4-chlorophenyl)-2-hydroxy-3-(1H-1,2,4-triazol-1-yl)propyl)benzamide] | 1.3 µM | 0.25 mg/L (≈ 0.627 µM) | 0.25 mg/L (≈ 0.627 µM) | 1.44 ± 0.266 µM | – | – |
| O=C(NCC(O)(Cn1cncn1)c1ccc(Cl)cc1Cl)c1ccc(NC(=S)Nc2ccc(Cl)cc2)cc1 (centres unmarked) [11b, 4-(3-(4-Chlorophenyl)thioureido)-N-(2-(2,4-dichlorophenyl)-2-hydroxy-3-(1H-1,2,4-triazol-1-yl)propyl)benzamide] | 0.67 µM | 0.5 mg/L (≈ 0.868 µM) | 0.25 mg/L (≈ 0.434 µM) | 0.125 ± 0.041 µM | – | – |

Further lines, results first:

| IC50 [1] | MIC [2] | MIC [3] | Kd (native CaCYP51) | MIC SC5314 [2] | MIC CA14 [3] | Compound |
| --- | --- | --- | --- | --- | --- | --- |
| 0.78 µM | 0.25 mg/L (≈ 0.43 µM) | 0.25 mg/L (≈ 0.43 µM) | 0.094 ± 0.024 µM | – | – | O=C(NCC(O)(Cn1cncn1)c1ccc(Cl)cc1Cl)c1ccc(NS(=O)(=O)c2ccc(Cl)cc2)cc1 (centres unmarked) [14b, 4-((4-Chlorophenyl)sulfonamido)-N-(2-(2,4-dichlorophenyl)-2-hydroxy-3-(1H-1,2,4-triazol-1-yl)propyl)benzamide] |
| 0.49 µM | < 0.03 mg/L | < 0.03 mg/L | 0.229 ± 0.045 µM | 0.06 mg/L (≈ 0.138 µM) | <0.03 mg/L | CC(=O)c1cccc(C(=O)NCC(O)(Cn2cncn2)c2ccc(Cl)cc2Cl)c1 (centres unmarked) [6b, 3-Acetyl-N-(2-(2,4-dichlorophenyl)-2-hydroxy-3-(1H-1,2,4-triazol-1yl)propyl)benzamide] |
| 0.47 µM | 0.125 mg/L (≈ 0.223 µM) | 0.125 mg/L (≈ 0.223 µM) | 0.137 ± 0.014 µM | – | – | O=C(Nc1ccc(Cl)cc1)Nc1ccc(C(=O)NCC(O)(Cn2cncn2)c2ccc(Cl)cc2Cl)cc1 (centres unmarked) [12b, 4-(3-(4-Chlorophenyl)ureido)-N-(2-(2,4-dichlorophenyl)-2-hydroxy-3-(1H-1,2,4-triazol-1-yl)propyl)benzamide] |
